Here are results for 12 compounds from US20220370453A1 (Storm Therapeutics Ltd, priority 2019, published 2022).

For assay [1], the target named is T1, BCDIN3D (Homo sapiens, UniProt Q7Z5W3).
T1 sequence (Q7Z5W3 1-292): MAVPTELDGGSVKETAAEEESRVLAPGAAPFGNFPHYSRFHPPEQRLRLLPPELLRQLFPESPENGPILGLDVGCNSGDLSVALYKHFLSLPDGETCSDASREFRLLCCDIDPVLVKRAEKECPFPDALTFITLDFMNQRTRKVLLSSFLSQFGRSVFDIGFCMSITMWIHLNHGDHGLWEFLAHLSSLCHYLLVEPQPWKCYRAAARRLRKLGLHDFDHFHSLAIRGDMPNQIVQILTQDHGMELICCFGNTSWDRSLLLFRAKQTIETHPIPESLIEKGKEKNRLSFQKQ
The assay can be described thus: BCDIN3D InCellPulse thermal stability assay in transfected A549 cells. In kind it is cell-based. Particulars: transiently transfected A549 cells, heat shock 58° C. 15 min. A digest of the protocol: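 Thermal stabilisation read-out: after a 15 min 58 °C heat shock, ePL-tagged BCDIN3D in transiently transfected A549 cells (1500/well) was quantified by enzyme-fragment complementation luminescence. Compounds were pre-incubated with cells 1 h at 37 °C, 0.6% DMSO final.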

Assay [2] has as its target T1, BCDIN3D. The assay can be described thus: BCDIN3D IC50 RFMS (RapidFire) assay with mini-helix. Particulars: mini-helix substrate 0.2 μM, SAM 6 μM, 25 nM enzyme. It is filed as biochemical. Summed up: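 SAH formation was measured by RapidFire mass spectrometry with D4- and 13C10-SAH internal standards after TCA quench. Substrates 6 μM SAM and 0.2 μM mini-helix reacted 1 h at 37 °C with 25 nM enzyme, which had been preincubated 10 min with compound (1% DMSO) in Tris pH 8.0 buffer with DTT, EDTA, BSA.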

Usually IC50 stands for the concentration that inhibits the measured activity by half. For the compound `Cn1ncc2c(NC3CC(C(F)(F)F)C3)nc(NC[C@H](N)c3ccccc3)nc21` (stereo partly drawn) [Compound 4.109, N6-[(2R)-2-amino-2-phenyl-ethyl]-1-methyl-N4-[3-(trifluoromethyl)cyclobutyl]pyrazolo[3,4-d]pyrimidine-4,6-diamine], the IC50 against BCDIN3D [1] came to 34 nM; against BCDIN3D [2], 17 nM.
In the same order, the values of `Cn1ncc2c(NCC(C)(C)F)nc(NC[C@H](N)c3ccccc3)nc21` [Compound 4.110, N6-[(2R)-2-amino-2-phenyl-ethyl]-N4-(2-fluoro-2-methyl-propyl)-1-methyl-pyrazolo[3,4-d]pyrimidine-4,6-diamine] are 672 nM and 553 nM.
As for `Cn1ncc2c(NC3(C)CCCCC3)nc(NC[C@H](N)c3ccccc3)nc21` [Compound 4.111, N6-[(2R)-2-amino-2-phenyl-ethyl]-1-methyl-N4-(1-methylcyclohexyl)pyrazolo[3,4-d]pyrimidine-4,6-diamine], the IC50 at BCDIN3D [1] is 292 nM; on BCDIN3D [2], 369 nM.
`Cn1ncc2c(NCC3CCC3F)nc(NC[C@H](N)c3ccccc3)nc21` (stereo partly drawn) [Compound 4.112, N6-[(2R)-2-amino-2-phenyl-ethyl]-N4-[(2-fluorocyclobutyl)methyl]-1-methyl-pyrazolo[3,4-d]pyrimidine-4,6-diamine]: the values for the IC50 on BCDIN3D [1] and on BCDIN3D [2] were 439 nM and 164 nM, respectively.
The like results for `Cn1ncc2c(NC3CCCC3)nc(NC[C@H](N)c3ccccc3)nc21` [Compound 4.113, N6-[(2R)-2-amino-2-phenyl-ethyl]-N4-cyclopentyl-1-methyl-pyrazolo[3,4-d]pyrimidine-4,6-diamine] were, in that order, 148 nM and 62 nM.
The like results for `Cn1ncc2c(NCCC(F)(F)F)nc(NC[C@H](N)c3ccccc3)nc21` [Compound 4.114, N6-[(2R)-2-amino-2-phenyl-ethyl]-1-methyl-N4-(3,3,3-trifluoropropyl)pyrazolo[3,4-d]pyrimidine-4,6-diamine] were, in that order, 1560 nM and 540 nM.
Regarding `Cn1ncc2c(NCC3CC3(Cl)Cl)nc(NC[C@H](N)c3ccccc3)nc21` (stereo partly drawn) [Compound 4.115, N6-[(2R)-2-amino-2-phenyl-ethyl]-N4-[(2,2-dichlorocyclopropyl)methyl]-1-methyl-pyrazolo[3,4-d]pyrimidine-4,6-diamine], the IC50 came out at 271 nM against BCDIN3D [1] and 39 nM against BCDIN3D [2].
In the same order, the values of `Cn1ncc2c(NC3(C)CCCC3)nc(NC[C@H](N)c3ccccc3)nc21` [Compound 4.116, N6-[(2R)-2-amino-2-phenyl-ethyl]-1-methyl-N4-(1-methylcyclopentyl)pyrazolo[3,4-d]pyrimidine-4,6-diamine] are 123 nM and 151 nM.
The like results for `COC[C@@H](C)Nc1nc(NC[C@H](N)c2ccccc2)nc2c1cnn2C` [Compound 4.117, N6-[(2R)-2-amino-2-phenyl-ethyl]-N4-[(1R)-2-methoxy-1-methyl-ethyl]-1-methyl-pyrazolo[3,4-d]pyrimidine-4,6-diamine] were, in that order, 608 nM and 783 nM.
In the same order, the values of `Cn1ncc2c(NC(C)(C)C3CCOCC3)nc(NC[C@H](N)c3ccccc3)nc21` [Compound 4.118, N6-[(2R)-2-amino-2-phenyl-ethyl]-1-methyl-N4-(1-methyl-1-tetrahydropyran-4-yl-ethyl)pyrazolo[3,4-d]pyrimidine-4,6-diamine] are 2500 nM and 2150 nM.
As for `Cn1ncc2c(NC3CC4(CC4)C3)nc(NC[C@H](N)c3ccccc3)nc21` [Compound 4.119, 1-methyl-N6-[(2R)-2-amino-2-phenyl-ethyl]-N4-spiro[2.3]hexan-5-yl-pyrazolo[3,4-d]pyrimidine-4,6-diamine], the IC50 against BCDIN3D [1] stood at 27 nM; on BCDIN3D [2], 24 nM.
Regarding `Cn1ncc2c(NC3CC3(C)C)nc(NC[C@H](N)c3ccccc3)nc21` (stereo partly drawn) [Compound 4.120, N6-[(2R)-2-amino-2-phenyl-ethyl]-N4-(2,2-dimethylcyclopropyl)-1-methyl-pyrazolo[3,4-d]pyrimidine-4,6-diamine], the IC50 against BCDIN3D [1] worked out at 1450 nM; against BCDIN3D [2], 252 nM.
